Source: PubChem BioAssay (NCI)
Where “and” joins values, the source holds several entries; their conditions need not be identical. Equal entries are not always repeated.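 Five concentrations, 48 hours, 96-well plates. Abbreviation: GI50, concentration required for 50% inhibition of growth. TGI denotes the concentration required for complete inhibition of growth.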

What was measured:
Test in all cases: NCI-60 cell line screen, 48 h
HOP-18 NSCLC = system: HOP-18 NSCLC
M19-MEL melanoma = system: M19-MEL melanoma
SNB-78 CNS = system: SNB-78 CNS
XF 498 CNS = system: XF 498 CNS
MDA-N = system: MDA-N
NCI/ADR-RES ovarian = system: NCI/ADR-RES ovarian
DLD-1 colon = system: DLD-1 colon
T-47D breast = system: T-47D breast
RXF-631 renal = system: RXF-631 renal

SMILES	TGI (HOP-18 NSCLC) [µM]	TGI (M19-MEL melanoma) [µM]	TGI (SNB-78 CNS) [µM]	TGI (XF 498 CNS) [µM]	TGI (MDA-N) [µM]	GI50 (NCI/ADR-RES ovarian)	TGI (NCI/ADR-RES ovarian)	TGI (DLD-1 colon) [µM]	GI50 (T-47D breast)	TGI (T-47D breast)	TGI (RXF-631 renal) [µM]
Clc1ccc2c(c1)-c1c3c(nn1-c1ccccc1)-c1ccccc1SC3O2 (centres undefined)	> 100	> 100	> 100	> 100	–	–	–	–	–	–	–
C[C@]12CC[C@@H]3c4cc(OCC(F)(F)F)c(O)cc4/C(=N/O)C[C@H]3[C@@H]1CC[C@@H]2O	–	–	–	–	1.06	0.0392 µM	2.49 µM	–	–	–	–
C1CCC([PH+](C2CCCCC2)C2CCCCC2[PH+](C2CCCCC2)C2CCCCC2)CC1.O=C(C1[CH-]CCCC1)C1CCCC[N-]1.[Au] (centres undefined)	–	–	–	–	–	1.8 µM	> 100 µM	–	–	–	–
COc1c(C(C)C)cc2c3c1OC(=O)[C@@]31CCCC(C)(C)C1CC2 (some centres undefined)	–	80.8	67.1	–	–	–	–	> 100	–	–	–
O=c1cc(NC2CCN(CCCc3ccccc3)CC2)c2cc(Cl)ccc2o1	–	–	–	–	–	15 µM	30.4 µM	–	12.5 µM	38.4 µM	–
Cc1ncc(CCCN(C)C)cc1Nc1ncc2c(n1)-c1ccc(C(F)(F)F)cc1NC(=S)C2	–	–	–	–	–	0.172 µM	> 67.7 µM	–	0.814 µM	33.8 µM	–
CC(=O)O[C@]12CCCCCC1C1(O)C(O)CCCC[C@H]12 (some centres undefined)	–	> 100	> 100	> 100	–	–	–	–	–	–	–
c1ccc(C2Nc3ccccc3C3OCCCC23)cc1 (centres undefined)	–	> 100	> 100	> 100	–	–	–	> 100	–	–	> 100
COc1cccc(C#Cc2ccccc2C#CCCCCO)c1	–	–	–	–	–	5.44 µM	20 µM	–	18.5 µM	43.1 µM	–
CC1=C(O)C(=O)C=C2C1=CC=C1[C@@]2(C)CC[C@@]2(C)[C@@H]3C[C@](C)(C(=O)O)CC[C@]3(C)CC[C@]12C	–	–	–	–	0.075	–	0.107 µM	–	–	0.0807 µM	–
CCc1nc(C(N)=O)c(Nc2ccc(N3CCC(N4CCN(C)CC4)CC3)c(OC)c2)nc1NC1CCOCC1	–	–	–	–	–	4.33 µM and 3.75 µM and 5.19 µM	22.2 µM and > 10 µM and 26.8 µM	–	13.2 µM and > 10 µM and 13.4 µM	30 µM and > 10 µM and 32.7 µM	–
CCn1c(SCc2ccc(C)cc2)nnc1-c1nn(-c2ccc(Cl)cc2Cl)c(-c2ccc(Cl)cc2)c1C	–	–	–	–	–	3.54 µM	14.6 µM	–	0.428 µM	10.1 µM	–
O=C(O)[C@H](NS(=O)(=O)c1ccc([N+](=O)[O-])cc1)c1ccccc1	> 100	> 100	> 100	> 100	–	–	–	> 100	–	–	> 100
CCOC(=O)c1ccc(C)c(N=NN(C)C)c1	> 100	> 100	–	> 100	–	–	–	> 100	–	–	–
COc1cccc2c(=O)c3c(sc12)c(N1CCNCC1)nc1ccccc13	–	–	–	–	–	1.75 µM	3.45 µM	–	1.9 µM	4.57 µM	–
O=C1CCC(O)=C1N=Nc1ccccc1	> 100	> 100	> 100	–	–	–	–	> 100	–	–	> 100
COc1cc2[nH]c(C(=O)c3cc(OC)c(OC)c(OC)c3)c(N)c2cc1C#CC1CC1	–	–	–	–	–	2.3 µM	14.4 µM	–	3.02 µM	> 100 µM	–
CC(=O)C(=CN1CCN(C(=O)c2ccco2)C1=S)C(C)=O	–	–	–	–	–	23.2 µM	56.6 µM	–	3.65 µM	12.6 µM	–
O=S(=O)(Nc1cc(Sc2cccc3cccnc23)c(O)c2ccccc12)c1ccccc1	–	–	–	–	–	0.931 µM	11 µM	–	1.56 µM	4.79 µM	–
